According to patent US12577231B2, “Androgen receptor PROTACS” (GlaxoSmithKline Intellectual Property Development Limited, priority 2023, dated 2026):

Legend:
[1] = molecular target: T1, Androgen receptor T878A (Homo sapiens, UniProt P10275, T878A); assay: Degradation of overexpressed Androgen Receptor in A549 cells (HiBiT), T878A; assay type: cell-based; conditions: A549 cells overexpressing AR T878A, cycloheximide, 24 hours
T1 construct: expressed in transfected cells; host or cells: A549, transduced, puromycin selected
T1 sequence (P10275 1-920 T878A): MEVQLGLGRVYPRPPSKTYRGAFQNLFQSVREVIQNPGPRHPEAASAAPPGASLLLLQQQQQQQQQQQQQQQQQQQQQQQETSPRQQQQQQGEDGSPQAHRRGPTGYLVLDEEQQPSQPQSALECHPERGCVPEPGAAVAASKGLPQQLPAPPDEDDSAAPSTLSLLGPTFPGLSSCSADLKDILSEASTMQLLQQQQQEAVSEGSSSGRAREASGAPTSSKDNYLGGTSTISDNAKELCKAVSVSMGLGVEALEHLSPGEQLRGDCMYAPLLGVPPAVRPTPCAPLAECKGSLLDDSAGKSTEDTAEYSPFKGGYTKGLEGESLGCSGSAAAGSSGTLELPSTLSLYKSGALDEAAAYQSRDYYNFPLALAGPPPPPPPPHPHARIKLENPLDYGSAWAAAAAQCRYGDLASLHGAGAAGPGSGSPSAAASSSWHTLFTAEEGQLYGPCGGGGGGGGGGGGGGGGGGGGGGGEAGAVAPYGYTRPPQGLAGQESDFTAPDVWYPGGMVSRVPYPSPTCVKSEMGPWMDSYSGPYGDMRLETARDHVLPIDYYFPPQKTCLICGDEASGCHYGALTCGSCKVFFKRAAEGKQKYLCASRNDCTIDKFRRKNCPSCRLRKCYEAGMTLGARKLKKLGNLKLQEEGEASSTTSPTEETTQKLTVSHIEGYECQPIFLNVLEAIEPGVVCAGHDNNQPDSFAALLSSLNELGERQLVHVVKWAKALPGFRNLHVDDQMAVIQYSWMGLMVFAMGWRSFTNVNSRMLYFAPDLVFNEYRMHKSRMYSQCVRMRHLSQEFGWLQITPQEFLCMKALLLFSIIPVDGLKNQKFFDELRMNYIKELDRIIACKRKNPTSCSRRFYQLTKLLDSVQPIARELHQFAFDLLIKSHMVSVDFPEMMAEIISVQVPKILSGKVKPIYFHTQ
Experimental: A549 cells were transduced to express wild type androgen receptor and Androgen receptor containing the following mutations (L702H, H875Y W742C W742L F877L, T878A and T878A/H875Y) with HiBiT tags. Transduced cells following puromycin selection were maintained in a humidified incubator (at 37° C. and 5% CO2 in the DMEM medium supplemented with 1% (v/v) Pen/Strep, 1% (v/v) Glutamax and 10% (v/v) FBS. A549 cells expressing each AR construct were detached from plate and counted. Cell suspensions at density 0.2 million per mL were prepared. Cell suspension was supplemented with 100 μg/mL of cycloheximide to block protein synthesis. Cells were preincubated with cycloheximide for 1 hr before seeding. Cells were seeded onto 384-well plate at density of 5,000 in 25 μL per well. A two fold serial dilution of test compounds, starting from 1 μM (row A) in 2-fold serial dilution series across the column using Tecan D300e dispenser. […]
Nano-Glo HiBiT Lytic reagent was prepared by adding LgBiT protein and Nano-Glo® substrate to lytic buffer pre-equilibrated at room temperature following manufacturer protocol (https://www.promega.co.uk/resources/protocols/technical-manuals/101/nanoglo-luciferase-assay-system-protocol). […] The plates were then centrifuged (100×G, 1 min) and incubated on shaker for 10 mins before taking readings on Pherastar Luminescence microplate reader. […]

[2] = in vivo; conditions: male, Wistar Han, rat, po
Experimental: Systemic exposure of various forms of N-((1r,3r)-3-(4-cyano-3-methoxyphenoxy)-2,2,4,4-tetramethylcyclobutyl)-4-(4-((4-(4-(2,4-dioxotetrahydropyrimidin-1(2H)-yl)-1H-pyrazolo[4,3-c]pyridin-1-yl)piperidin-1-yl)methyl)piperidin-1-yl)-3-fluorobenzamide were assessed following oral administration of 30 mg/kg of a suspension formulation (1% methylcellulose (aq)) or following oral administration of 35 mg/kg of a suspension formulation (100% PEG400) in the male Wistar Han rat. […] The sampling period was 72 hours, and the data is reported in the attached table as mean±SD (n=3).

[3] = molecular target: T2, Androgen Receptor, LNCaP (AR T878A) (Homo sapiens, UniProt P10275, T878A); assay: Androgen Receptor Degradation-Imaging Assay, LNCaP cell line; assay type: cell-based; conditions: 16 hours treatment, maximum observed degradation
T2 construct: endogenous in cells; host or cells: LNCaP
T2 sequence (P10275 1-920 T878A): T1 sequence (P10275 1-920 T878A)
Experimental: Degradation of Androgen Receptor (AR) protein in human prostate cancer cell lines (MDA-PCa-2b (AR T878A/L702H), LNCaP (AR T878A), VCaP (AR wild type and amplified) 22RV1 (AR H875Y) and PC3 (AR negative control)) treated with AR PROTACs was quantified using immunofluorescence. Prostate cancer cells were plated (MDA-PCa-2b, and VCaP 16,000 cells/well; LNCaP and 22RV1 32,000 cells/well, and PC3 8,000 cells/well) in an optical bottom 96-well cell culture plate and allowed to attach overnight. The prostate cancer cell lines were treated for 16 hours with a 10-point 3-fold dilution series (dose range=0.02 nM to 333 nM). PC3 is included as an AR negative control and not treated with compound. Cells are fixed and permeabilized with 4% formaldehyde, blocked with 10% goat serum in immunofluorescence (IF) buffer (130 mM NaCl, 7 mM Na2HPO4, 3.5 mM NaH2PO4, 7.7 mM NaN3, 0.1% BSA, 0.2% Triton X, 0.05% Tween 20) prior to overnight incubation with rabbit antibody specific for C terminus of AR (commercially available from RevMaB Biosciences). Following washes with IF buffer, cells were incubated with fluorescent secondary antibody (Goat anti-rabbit Alexa 647; commercially available from Invitrogen) and Hoechst nuclear stain (commercially available from Themo Scientific) prior to quantification of nuclear AR levels via Opera Phenix high-content fluorescent imager using a 40× water objective. Image analysis was performed with Harmony software.
The averaged nuclear Alexa 647 median fluorescence intensity (MFI) of PC3 cells is subtracted from the nuclear Alexa 647 MFI of PROTAC treated and DMSO control treated cells. % AR remaining is calculated for PROTAC treatments as a percent of the DMSO control (MFI PROTAC treated/MFI DMSO control treated)*100). DC50 and the Dmax values, were obtained from these normalised values fitted with a 4-parameter sigmoidal response curve (Xlfit software). The DC50 is the interpolated concentration of PROTAC corresponding to 50% of the protein being degraded, and the Dmax parameter is the maximum experimentally observed degradation.

COc1cc(O[C@H]2C(C)(C)[C@H](NC(=O)c3ccc(N4CCC(CN5CCC(n6ncc7c(N8CCC(=O)NC8=O)nccc76)CC5)CC4)c(F)c3)C2(C)C)ccc1C#N [Example 20, N-((1r,3r)-3-(4-Cyano-3-methoxyphenoxy)-2,2,4,4-tetramethylcyclobutyl)-4-(4-((4-(4-(2,4-dioxotetrahydropyrimidin-1(2H)-yl)-1H-pyrazolo[4,3-c]pyridin-1-yl)piperidin-1-yl)methyl)piperidin-1-yl)-3-fluorobenzamide]
Summary pXC50 [1]: 8.81
AUC0-t ([2]; 30 mg/kg): 7220 ± 1220 ng·h/mL
Cmax ([2]; 30 mg/kg): 318 ± 50 ng/mL
Tmax ([2]; 30 mg/kg): 8 h
AUC0-t ([2]; 35 mg/kg): 26200 ± 1750 ng·h/mL
Cmax ([2]; 35 mg/kg): 849 ± 98 ng/mL
Tmax ([2]; 35 mg/kg): 8.7 ± 3 h
Dmax [3]: ≥ 80%

CC1(C)[C@H](NC(=O)c2ccc(N3CCC(CN4CCC(n5ccc6c(N7CCC(=O)NC7=O)cc(F)cc65)CC4)CC3)c(F)c2)C(C)(C)[C@H]1Oc1ccc(C#N)c2ncccc12 [Example 32, N-((1r,3r)-3-((8-Cyanoquinolin-5-yl)oxy)-2,2,4,4-tetramethylcyclobutyl)-4-(4-((4-(4-(2,4-dioxotetrahydropyrimidin-1(2H)-yl)-6-fluoro-1H-indol-1-yl)piperidin-1-yl)methyl)piperidin-1-yl)-3-fluorobenzamide]
Dmax [3]: ≥ 80%

COc1cc(O[C@H]2C(C)(C)[C@H](NC(=O)c3ccc(N4CCC(CN5CCC(n6ncc7c(N8CCC(=O)NC8=O)cccc76)CC5)CC4)cc3)C2(C)C)ccc1C#N [Example 15, N-((1r,3r)-3-(4-Cyano-3-methoxyphenoxy)-2,2,4,4-tetramethylcyclobutyl)-4-(4-((4-(4-(2,4-dioxotetrahydropyrimidin-1(2H)-yl)-1H-indazol-1-yl)piperidin-1-yl)methyl)piperidin-1-yl)benzamide]
Dmax [3]: ≥ 80%

COc1cc(O[C@H]2C(C)(C)[C@H](NC(=O)c3ccc(N4CCC(CN5CCC(n6ccc7c(N8CCC(=O)NC8=O)cccc76)CC5)CC4)cc3)C2(C)C)ccc1C#N [Example 16, N-((1r,3r)-3-(4-Cyano-3-methoxyphenoxy)-2,2,4,4-tetramethylcyclobutyl)-4-(4-((4-(4-(2,4-dioxotetrahydropyrimidin-1(2H)-yl)-1H-indol-1-yl)piperidin-1-yl)methyl)piperidin-1-yl)benzamide]
Dmax [3]: ≥ 80%
